{
  "source": "patent US20210260101A1",
  "about": "“POTENTIATED ANTIBIOTIC COMPOSITIONS AND METHODS OF USE FOR TREATING BACTERIAL INFECTIONS AND BIOFILMS” (priority 2018, published 2021)",
  "key": {"PA OU22": {"test_system": "PA OU22", "test": "Checkerboard assay, PA OU22", "assay_type": "cell-based, Pseudomonas aeruginosa", "description": "(§1) Cells were grown at 35° C. with shaking. The OD600 (optical density at 600 nm) was monitored and recorded for each sample over 24 hr. Each checkerboard trial was done in triplicate using sterile Greiner CellStar™ flat bottom polystyrene plates, catalog #655180. Each growth curve was done in duplicate."}, "[1]": {"test_system": "MRSE 35984 biofilm formation", "test": "Crystal violet biofilm formation inhibition (MBIC)", "assay_type": "cell-based, Staphylococcus epidermidis", "text": "Additionally, higher concentrations of BPEI corresponded to greater inhibition of biofilm formation."}, "[2]": {"test_system": "P. aeruginosa PA01 ATCC BAA-47", "test": "MIC/potentiation against P. aeruginosa PA01 (Example 1)", "assay_type": "cell-based, Pseudomonas aeruginosa", "details": "higher inoculum, 5 × 10^7 CFU/ml"}, "[3]": {"test_system": "biofilms of P. aeruginosa BAA-47", "test": "MBEC assay (Calgary biofilm device), PA BAA-47", "assay_type": "cell-based, Pseudomonas aeruginosa", "description": "A sub-culture of P. aeruginosa BAA-47 was grown from the cryogenic stock on an agar plate overnight at 35° C. The MBEC plate was inoculated with 150 μL of CAMHB/well plus 1 μL of a stock culture made from 1 colony/mL of P. aeruginosa BAA-47 in CAMHB (˜5×10^5 CFU/mL). The MBEC inoculator plate was sealed with Parafilm™ and incubated for 24 hr at 35° C. with 100 rpm shaking to facilitate biofilm formation on the prongs. Following biofilm formation, the lid of the MBEC inoculator was removed and placed in a rinse plate containing 200 μL of sterile PBS for 10 sec. […] Antimicrobial solutions were serial-diluted and added to the 96-well plate, which contained 200 μL of CAMHB per well. After the rinsing step, the preformed biofilm prong lid was immediately transferred into the prepared antimicrobial challenge plate and incubated at 35° C. for 20-24 hr. […] After incubation, the OD600 of the recovery plate was measured using a Tecan Infinite M20 plate reader to determine the MBEC of the antimicrobial compounds tested. […] Likewise, the OD600 for the base of the challenge plate was measured to determine the MICs of the antimicrobial compounds. The fractional inhibitory concentration index (FICI) calculated based on the established equation was used to determine synergy (FICI≤0.5), additivity (0.5<FICI<1), and no synergy (FICI≥1)."}, "PA OU12": {"test_system": "PA OU12", "test": "Checkerboard assay, PA OU12", "assay_type": "cell-based, Pseudomonas aeruginosa", "description": "as §1"}, "[4]": {"test_system": "P. aeruginosa OU1 (PA OU1)", "test": "Checkerboard assay, clinical isolate PA OU1", "assay_type": "cell-based, Pseudomonas aeruginosa", "description": "(§2) Cells were grown at 37° C. The change in OD600 (optical density at 600 nm) was measured and recorded after 24 hr of treatment. Each checkerboard trial was done in triplicate using sterile Greiner CellStar™ flat bottom polystyrene plates, catalog #655180.\nas §1"}, "P. aeruginosa 27853": {"test_system": "P. aeruginosa 27853", "test": "Checkerboard assay, P. aeruginosa 27853", "assay_type": "cell-based, Pseudomonas aeruginosa", "description": "as §2, §1"}, "E. coli 25922": {"test_system": "E. coli 25922", "test": "MIC/potentiation against E. coli 25922", "assay_type": "cell-based, Escherichia coli", "details": "3×10^5 CFU/mL"}, "[5]": {"test_system": "P. aeruginosa ATCC BAA-47", "test": "Checkerboard assay (Example 5), PA BAA-47", "assay_type": "cell-based, Pseudomonas aeruginosa", "description": "as §1"}, "[6]": {"test_system": "clinical isolates OU15, OU19, and OU22", "test": "Checkerboard assay, isolates OU15, OU19 and OU22 reported together", "assay_type": "cell-based, Pseudomonas aeruginosa", "details": "Pseudomonas aeruginosa", "description": "as §1"}, "MRSA USA 300 ATCC 1717": {"test_system": "MRSA USA 300 ATCC 1717", "test": "Checkerboard MIC assay against MRSA USA300 (Example 1)", "assay_type": "cell-based, Staphylococcus aureus", "details": "MRSA USA300"}, "PA OU15": {"test_system": "PA OU15", "test": "Checkerboard assay, PA OU15", "assay_type": "cell-based, Pseudomonas aeruginosa", "description": "as §1"}, "MRSE ATCC 29887 biofilm": {"test_system": "MRSE ATCC 29887 biofilm", "test": "MBEC assay (challenge plate MIC, recovery plate MBEC), MRSE 29887", "assay_type": "cell-based, Staphylococcus epidermidis", "description": "A sub-culture of MRSE was grown from the cryogenic stock on an agar plate overnight at 35° C. The MBEC plate was inoculated with 150 μL of TSB/well plus 1 μL of a stock culture made from 1 colony/mL of MRSE in TSB. The MBEC inoculator plate was sealed with Parafilm and incubated for 24 hours at 35° C. with 100 rpm shaking to facilitate biofilm formation on the prongs. Following biofilm formation, the lid of the MBEC inoculator was removed and placed in a rinse plate containing 200 μL of sterile PBS for 10 sec. Biofilm growth check (BGC) was performed by breaking a few prongs off using sterile pliers, submerging them in 1 mL PBS, and sonicating them on high for 30 minutes to dislodge the biofilm. After sonication, the biofilm solution was serial-diluted and spot-plated on agar plates for CFU counting to determine the biofilm density on the prongs.\nA challenge plate was made in a new pre-sterilized 96-well plate in a checkerboard-assay pattern to test the synergistic activity of BPEI+antibiotic combinations. […] After incubation, the OD600 (optical density at 600 nm) of the recovery plate was measured using a Tecan Infinite M20 plate reader to determine the MBEC of the antimicrobial compounds tested. […] Likewise, the OD600 for the base of the challenge plate was measured […] to determine the MICs of the antimicrobial compounds."}, "PA OU19": {"test_system": "PA OU19", "test": "Checkerboard assay, PA OU19", "assay_type": "cell-based, Pseudomonas aeruginosa", "description": "as §1"}},
  "note": "Several values for one entry are separate records, joined by “and”; a condition that tells them apart may be missing. Equal entries are not always repeated. Where two headings read alike, the source gives them in different places.",
  "data": [
    {"smiles": "CCN1CCN(C(=O)N[C@@H](C(=O)N[C@@H]2C(=O)N3[C@@H]2SC(C)(C)[C@@H]3C(=O)O)c2ccccc2)C(=O)C1=O", "note": "[piperacillin]", "values": [
      {"measurement": "PIP MIC in combination with BPEI600", "setting": "PA OU22; BPEI600 amount in same cell", "value": 4, "unit": "µg/mL"},
      {"measurement": "MIC", "setting": "PA OU22; Pseudomonas aeruginosa, PA OU22, agent alone, read-out: MIC", "value": "> 256", "unit": "µg/mL"},
      {"measurement": "piperacillin concentration preventing biofilm growth with 8 μg/mL of BPEI", "setting": "[1]", "value": 16, "unit": "µg/mL"},
      {"measurement": "piperacillin concentration preventing biofilm growth with 16 μg/mL of BPEI", "setting": "[1]", "value": 8, "unit": "µg/mL"},
      {"measurement": "Minimum Biofilm Inhibitory Concentration (MBIC)", "setting": "[1]; agent alone, 24 hours", "value": 64, "unit": "µg/mL"},
      {"measurement": "MIC, antibiotic + 0.5 μg/ml (0.85 μM) 600-Da BPEI", "setting": "[2]", "value": 16, "unit": "µg/mL"},
      {"measurement": "MIC, antibiotic + 4 μg/ml (4.25 μM) PEG350BPEI600", "setting": "[2]", "value": 32, "unit": "µg/mL"},
      {"measurement": "piperacillin MBEC in combination with BPEI600", "setting": "[3]; 16 μg/mL of BPEI", "value": 8, "unit": "µg/mL"},
      {"measurement": "MBEC", "setting": "[3]; P. aeruginosa BAA-47 biofilm, agent alone", "value": 256, "unit": "µg/mL"},
      {"measurement": "PIP MIC in combination with BPEI600", "setting": "PA OU12; BPEI600 amount in same cell", "value": 8, "unit": "µg/mL"},
      {"measurement": "MIC", "setting": "PA OU12; Pseudomonas aeruginosa, PA OU12, agent alone", "value": 128, "unit": "µg/mL"},
      {"measurement": "PIP MIC in combination with 600 Da BPEI", "setting": "[4]", "value": "8 µg/mL and 4 µg/mL"},
      {"measurement": "PIP MIC in combination with PEG-BPEI", "setting": "[4]; PEG-BPEI amount in same cell", "value": 4, "unit": "µg/mL"},
      {"measurement": "MIC", "setting": "[4]; Pseudomonas aeruginosa, PA OU1, agent alone, piperacillin only, no tazobactam", "value": 64, "unit": "µg/mL"},
      {"measurement": "PIP MIC in combination with 600 Da BPEI", "setting": "[4]; listed as PIP", "value": 4, "unit": "µg/mL"},
      {"measurement": "PIP MIC in combination with 600 Da BPEI", "setting": "P. aeruginosa 27853; BPEI amount in same cell", "value": 0.25, "unit": "µg/mL"},
      {"measurement": "PIP MIC in combination with PEG-BPEI", "setting": "P. aeruginosa 27853; PEG-BPEI amount in same cell", "value": 0.5, "unit": "µg/mL"},
      {"measurement": "MIC", "setting": "P. aeruginosa 27853; Pseudomonas aeruginosa, PA 27853, agent alone, piperacillin only, no tazobactam", "value": 4, "unit": "µg/mL"},
      {"measurement": "MIC", "setting": "E. coli 25922; Escherichia coli, 25922, read-out: piperacillin MIC with 8 μg/mL (13.6 μM) of BPEI600", "value": 0.125, "unit": "µg/mL"},
      {"measurement": "MIC", "setting": "E. coli 25922; Escherichia coli, 25922, read-out: piperacillin MIC with 32 μg/mL (34 μM) of PEG350-BPEI600", "value": 0.25, "unit": "µg/mL"},
      {"measurement": "MIC", "setting": "E. coli 25922; Escherichia coli, 25922, alone, read-out: piperacillin MIC", "value": 1, "unit": "µg/mL"},
      {"measurement": "PIP MIC in combination with BPEI600", "setting": "[5]; BPEI600 amount in same cell", "value": 1, "unit": "µg/mL"},
      {"measurement": "MIC", "setting": "[5]; Pseudomonas aeruginosa, PA BAA-47, agent alone", "value": 4, "unit": "µg/mL"},
      {"measurement": "MIC", "setting": "[6]; read-out: piperacillin MIC with BPEI600 at ¼th of its MIC value", "value": "1 to 4", "unit": "µg/mL"},
      {"measurement": "MIC", "setting": "[6]; isolates OU15, OU19, OU22, agent alone (data not shown), read-out: MIC", "value": "> 256", "unit": "µg/mL"},
      {"measurement": "MIC with 4 μg/ml (6.75 μM) 600-Da BPEI", "setting": "MRSA USA 300 ATCC 1717", "value": 1, "unit": "µg/mL"},
      {"measurement": "MIC", "setting": "MRSA USA 300 ATCC 1717; Staphylococcus aureus, agent alone, read-out: MIC of antibiotic only", "value": 4, "unit": "µg/mL"},
      {"measurement": "PIP MIC in combination with BPEI600", "setting": "PA OU15; BPEI600 amount in same cell", "value": 32, "unit": "µg/mL"},
      {"measurement": "MIC", "setting": "PA OU15; Pseudomonas aeruginosa, PA OU15, agent alone, read-out: MIC", "value": 128, "unit": "µg/mL"},
      {"measurement": "piperacillin concentration eradicating biofilms with 128 μg/mL BPEI", "setting": "MRSE ATCC 29887 biofilm; MRSE 29887 biofilm", "value": 64, "unit": "µg/mL"},
      {"measurement": "MIC", "setting": "MRSE ATCC 29887 biofilm; Staphylococcus epidermidis, MRSE 29887, agent alone", "value": 512, "unit": "µg/mL"},
      {"measurement": "PIP MIC in combination with BPEI600", "setting": "PA OU19; BPEI600 amount in same cell", "value": 1, "unit": "µg/mL"},
      {"measurement": "MIC", "setting": "PA OU19; Pseudomonas aeruginosa, PA OU19, agent alone, read-out: MIC", "value": "> 256", "unit": "µg/mL"}
    ]}
  ]
}
